From the supplement of paper PMC11061612

How the values were obtained:
AZD5363 = compound: C1CN(CCC1(C(=O)N[C@@H](CCO)C2=CC=C(C=C2)Cl)N)C3=NC=NC4=C3C=CN4 [AZD5363]; settings: max 10 µM
Outline: (§1)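 Viability was measured with CellTiter-Glo 2.0 luminescence after 72 hours of dosing at a final DMSO of typically 0.2%, and scaled between blank-well and DMSO-well means. Beforehand, cancer cell lines sat 24 hours at 37°C and 5% CO2 in 1536-well plates in 7.5 μl DMEM/F12 or RPMI with 10% FBS. A non-linear mixed effects model fitted two-parameter logistic curves to the dose responses. The single-agent IC50 comes from these fits.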

AZD8186 = compound: C[C@@H](Nc1cc(F)cc(F)c1)c1cc(C(=O)N(C)C)cc2c(=O)cc(N3CCOCC3)oc12 [AZD8186]; settings: max 10 µM
Outline: as §1

AZD4320 = compound: CN(CC[C@H](CSC1=CC=CC=C1)NC2=C(C=C(C=C2)S(=O)(=O)NC(=O)C3=CC=C(C=C3)N4CCC(CC4)[C@H](C5=CC=CC=C5C6=CC=C(C=C6)Cl)O)S(=O)(=O)C(F)(F)F)CCO [AZD4320]; settings: max 1 µM
Outline: as §1

Etoposide = compound: COc1cc([C@@H]2c3cc4c(cc3[C@@H](O[C@@H]3O[C@@H]5CO[C@@H](C)O[C@H]5[C@H](O)[C@H]3O)[C@H]3COC(=O)[C@H]23)OCO4)cc(OC)c1O [Etoposide]; settings: max 10 µM
Outline: as §1

5-Fluorouracil = compound: O=c1[nH]cc(F)c(=O)[nH]1 [5-Fluorouracil]; settings: max 20 µM
Outline: as §1

Venetoclax = compound: CC1(C)CCC(CN2CCN(c3ccc(C(=O)NS(=O)(=O)c4ccc(NCC5CCOCC5)c([N+](=O)[O-])c4)c(Oc4cnc5[nH]ccc5c4)c3)CC2)=C(c2ccc(Cl)cc2)C1 [Venetoclax]; settings: max 1 µM
Outline: as §1

[1] = compound: O=C(Nc1ccc2[nH]nc(-c3ccncc3)c2c1)[C@@H]1CCN(CC(=O)N2CCN(c3ccc(-c4ncccn4)cc3)CC2)C1; settings: max 5 µM
Outline: as §1

AZD5153 = compound: COc1nnc2ccc(N3CCC(c4ccc(OCCN5CCN(C)C(=O)[C@H]5C)cc4)CC3)nn12 [AZD5153]; settings: max 1 µM
Outline: as §1

SG3199 = compound: CC1=CN2[C@@H](C1)C=NC3=CC(=C(C=C3C2=O)OC)OCCCCCOC4=C(C=C5C(=C4)N=C[C@@H]6CC(=CN6C5=O)C)OC [SG3199]; settings: max 0.001 µM
Outline: as §1

AZD1390 = compound: CC(C)n1c(=O)n(C)c2cnc3cc(F)c(-c4ccc(OCCCN5CCCCC5)nc4)cc3c21 [AZD1390]; settings: max 0.3 µM
Outline: as §1

Trametinib = compound: CC(=O)Nc1cccc(-n2c(=O)n(C3CC3)c(=O)c3c(Nc4ccc(I)cc4F)n(C)c(=O)c(C)c32)c1 [Trametinib]; settings: max 1 µM
Outline: as §1

Paclitaxel = compound: CC(=O)O[C@H]1C(=O)[C@@]2(C)[C@H]([C@H](OC(=O)c3ccccc3)[C@]3(O)C[C@H](OC(=O)[C@H](O)[C@@H](NC(=O)c4ccccc4)c4ccccc4)C(C)=C1C3(C)C)[C@]1(OC(C)=O)CO[C@@H]1C[C@@H]2O [Paclitaxel]; settings: max 3 µM
Outline: as §1

Carboplatin = compound: C1CC(C1)(C(=O)[O-])C(=O)[O-].N.N.[Pt+2] [Carboplatin]; settings: max 10 µM
Outline: as §1

AZD5991 = compound: Cc1c2c(nn1C)CSCc1cc(n(C)n1)CSc1cc(c3ccccc3c1)OCCCc1c(C(=O)O)n(C)c3c-2c(Cl)ccc13 [AZD5991]; settings: max 1 µM
Outline: as §1

Olaparib = compound: O=C(c1cc(Cc2n[nH]c(=O)c3ccccc23)ccc1F)N1CCN(C(=O)C2CC2)CC1 [Olaparib]; settings: max 10 µM
Outline: as §1

Taselisib = compound: Cc1nc(-c2cn3c(n2)-c2ccc(-c4cnn(C(C)(C)C(N)=O)c4)cc2OCC3)n(C(C)C)n1 [Taselisib]; settings: max 10 µM
Outline: as §1

AZD0156 = compound: CN(C)CCCOc1ccc(-c2ccc3ncc4c(c3c2)n(C2CCOCC2)c(=O)n4C)cn1 [AZD0156]; settings: max 3 µM
Outline: as §1

Gemcitabine = compound: Nc1ccn([C@@H]2O[C@H](CO)[C@@H](O)C2(F)F)c(=O)n1 [Gemcitabine]; settings: max 0.3 µM
Outline: as §1

Gefitinib = compound: COc1cc2ncnc(Nc3ccc(F)c(Cl)c3)c2cc1OCCCN1CCOCC1 [Gefitinib]; settings: max 10 µM
Outline: as §1

AZD1775 = compound: C=CCn1c(=O)c2cnc(Nc3ccc(N4CCN(C)CC4)cc3)nc2n1-c1cccc(C(C)(C)O)n1 [AZD1775]; settings: max 3 µM
Outline: as §1

AZD7648 = compound: Cc1cc2ncnn2cc1Nc1ncc2c(n1)n(C1CCOCC1)c(=O)n2C [AZD7648]; settings: max 10 µM
Outline: as §1

AZD2811 = compound: CCN(CCO)CCCOc1ccc2c(Nc3cc(CC(=O)Nc4cccc(F)c4)[nH]n3)ncnc2c1 [AZD2811]; settings: max 1 µM
Outline: as §1

Savolitinib = compound: C[C@@H](c1ccc2nccn2c1)n1nnc2ncc(-c3cnn(C)c3)nc21 [Savolitinib]; settings: max 1 µM
Outline: as §1

Prexasertib = compound: COc1cccc(OCCCN)c1-c1cc(Nc2cnc(C#N)cn2)n[nH]1 [Prexasertib]; settings: max 1 µM
Outline: as §1

Dasatinib = compound: CC1=C(C(=CC=C1)Cl)NC(=O)C2=CN=C(S2)NC3=CC(=NC(=N3)C)N4CCN(CC4)CCO [Dasatinib]; settings: max 2 µM
Outline: as §1

Alisertib = compound: COc1cc(Nc2ncc3c(n2)-c2ccc(Cl)cc2C(c2c(F)cccc2OC)=NC3)ccc1C(=O)O [Alisertib]; settings: max 10 µM
Outline: as §1

Palbociclib = compound: CC(=O)c1c(C)c2cnc(Nc3ccc(N4CCNCC4)cn3)nc2n(C2CCCC2)c1=O [Palbociclib]; settings: max 10 µM
Outline: as §1

MK-2206 = compound: NC1(c2ccc(-c3nc4ccn5c(=O)[nH]nc5c4cc3-c3ccccc3)cc2)CCC1 [MK-2206]; settings: max 10 µM
Outline: as §1

SN-38 = compound: CCc1c2c(nc3ccc(O)cc13)-c1cc3c(c(=O)n1C2)COC(=O)[C@]3(O)CC [SN-38]; settings: max 0.3 µM
Outline: as §1

Doxorubicin = compound: COc1cccc2c1C(=O)c1c(O)c3c(c(O)c1C2=O)C[C@@](O)(C(=O)CO)C[C@@H]3O[C@H]1C[C@H](N)[C@H](O)[C@H](C)O1 [Doxorubicin]; settings: max 1 µM
Outline: as §1

Crizotinib = compound: C[C@@H](Oc1cc(-c2cnn(C3CCNCC3)c2)cnc1N)c1c(Cl)ccc(F)c1Cl [Crizotinib]; settings: max 10 µM
Outline: as §1

Lapatinib = compound: CS(=O)(=O)CCNCc1ccc(-c2ccc3ncnc(Nc4ccc(OCc5cccc(F)c5)c(Cl)c4)c3c2)o1 [Lapatinib]; settings: max 10 µM
Outline: as §1

Selumetinib = compound: Cn1cnc2c(F)c(Nc3ccc(Br)cc3Cl)c(C(=O)NOCCO)cc21 [Selumetinib]; settings: max 10 µM
Outline: as §1

AZD6738 = compound: C[C@@H]1COCCN1C2=NC(=NC(=C2)C3(CC3)[S@](=N)(=O)C)C4=C5C=CNC5=NC=C4 [AZD6738]; settings: max 10 µM
Outline: as §1

SRA737 = compound: N#Cc1cnc(Nc2cc(NC[C@H]3CNCCO3)c(C(F)(F)F)cn2)cn1 [SRA737]; settings: max 10 µM
Outline: as §1

Cell Line | IC50, cell viability 72 h (AZD5363) [µM] | IC50, cell viability 72 h (AZD8186) [µM] | IC50, cell viability 72 h (AZD4320) [µM] | IC50, cell viability 72 h (Etoposide) [µM] | IC50, cell viability 72 h (5-Fluorouracil) [µM] | IC50, cell viability 72 h (Venetoclax) [µM] | IC50, cell viability 72 h [1] [µM] | IC50, cell viability 72 h (AZD5153) [µM] | IC50, cell viability 72 h (SG3199) [µM] | IC50, cell viability 72 h (AZD1390) [µM] | IC50, cell viability 72 h (Trametinib) [µM] | IC50, cell viability 72 h (Paclitaxel) [µM] | IC50, cell viability 72 h (Carboplatin) [µM] | IC50, cell viability 72 h (AZD5991) [µM] | IC50, cell viability 72 h (Olaparib) [µM] | IC50, cell viability 72 h (Taselisib) [µM] | IC50, cell viability 72 h (AZD0156) [µM] | IC50, cell viability 72 h (Gemcitabine) [µM] | IC50, cell viability 72 h (Gefitinib) [µM] | IC50, cell viability 72 h (AZD1775) [µM] | IC50, cell viability 72 h (AZD7648) [µM] | IC50, cell viability 72 h (AZD2811) [µM] | IC50, cell viability 72 h (Savolitinib) [µM] | IC50, cell viability 72 h (Prexasertib) [µM] | IC50, cell viability 72 h (Dasatinib) [µM] | IC50, cell viability 72 h (Alisertib) [µM] | IC50, cell viability 72 h (Palbociclib) [µM] | IC50, cell viability 72 h (MK-2206) [µM] | IC50, cell viability 72 h (SN-38) [µM] | IC50, cell viability 72 h (Doxorubicin) [µM] | IC50, cell viability 72 h (Crizotinib) [µM] | IC50, cell viability 72 h (Lapatinib) [µM] | IC50, cell viability 72 h (Selumetinib) [µM] | IC50, cell viability 72 h (AZD6738) [µM] | IC50, cell viability 72 h (SRA737) [µM]
EFO-21 (Ovarian Carcinoma) | > 10 | > 10 | > 1 | > 10 | > 20 | > 1 | > 5 | > 1 | > 0.001 | > 0.3 | > 1 | > 3 | > 10 | > 1 | > 10 | > 10 | > 3 | > 0.3 | > 10 | > 3 | > 10 | > 1 | > 1 | 0.101 | > 2 | > 10 | > 10 | > 10 | > 0.3 | > 1 | > 10 | > 10 | > 10 | > 10 | > 10
HAL-01 (B-Lymphoblastic Leukemia) | > 10 | 1.13 | 0.496 | 2.7 | > 20 | 0.109 | > 5 | 0.0918 | > 0.001 | > 0.3 | > 1 | 0.335 | > 10 | > 1 | > 10 | 0.36 | > 3 | 0.00247 | > 10 | 0.327 | > 10 | > 1 | > 1 | 0.0166 | > 2 | 0.109 | 1.89 | 1 | 0.00569 | 0.496 | 2.84 | > 10 | > 10 | 0.652 | 0.528
KGN (Other Solid Carcinomas) | > 10 | 3.86 | > 1 | 2 | > 20 | > 1 | > 5 | 0.153 | > 0.001 | > 0.3 | 0.999 | 0.0128 | > 10 | > 1 | > 10 | 2.32 | > 3 | 0.00601 | > 10 | 0.49 | > 10 | 0.451 | > 1 | 0.117 | 0.167 | 1.59 | 2.85 | > 10 | 0.00895 | 0.095 | 4.34 | > 10 | > 10 | 2.75 | > 10
KMRC-1 (Kidney Carcinoma) | > 10 | 3.16 | > 1 | > 10 | > 20 | > 1 | > 5 | > 1 | > 0.001 | > 0.3 | > 1 | > 3 | > 10 | > 1 | > 10 | > 10 | > 3 | 0.133 | > 10 | > 3 | > 10 | > 1 | > 1 | 0.588 | 0.711 | > 10 | > 10 | > 10 | > 0.3 | > 1 | > 10 | > 10 | > 10 | > 10 | > 10
MDA-MB-453 (Breast Carcinoma) | 8.59 | > 10 | > 1 | > 10 | > 20 | > 1 | > 5 | 0.349 | > 0.001 | > 0.3 | > 1 | 0.509 | > 10 | > 1 | > 10 | 0.521 | > 3 | > 0.3 | > 10 | 1.51 | > 10 | > 1 | > 1 | 0.0429 | > 2 | > 10 | > 10 | 3.56 | 0.0682 | > 1 | > 10 | > 10 | > 10 | 3.96 | > 10
SK-LU-1 (Lung Adenocarcinoma) | > 10 | > 10 | > 1 | > 10 | > 20 | > 1 | > 5 | > 1 | – | > 0.3 | > 1 | > 3 | > 10 | > 1 | > 10 | > 10 | > 3 | > 0.3 | > 10 | 1.15 | > 10 | > 1 | > 1 | – | > 2 | – | > 10 | > 10 | 0.145 | – | > 10 | > 10 | > 10 | > 10 | > 10
